The values that follow come from patent US11746103B2, “ALK-5 inhibitors and uses thereof” (Sumitomo Pharma Oncology, Inc., priority 2020, dated 2023).

pIC50: −log10 of the molar value.

The subject of assay [1] is TGF-beta induced SMAD signaling. As to the kind of experiment: RDSR (RD SMAD reporter) Cellular Reporter Assay. In kind it is cell-based. As to conditions: Homo sapiens; 200 pg/ml rhTGF-beta1, 24 h; read-out: RD-SMAD reporter activity. From the text: TGF-β signaling is triggered when the activated TGF-β homodimer binds to the TGF-β receptor 2, which in turn leads to the recruitment and phosphorylation of TGF-β receptor 1 (ALK5). Activated TGF-β receptor 1 phosphorylates the signal transduction molecules SMAD2 and SMAD3. These bind to common mediator SMAD4 and translocate to the nucleus where they bind to short conserved DNA sequences called the SMAD binding element and induce the transcription of various target genes. […] Certain example compounds were also or alternatively assayed using the RDSR Cellular Reporter Assay. Overview and Design: The RD SMAD reporter (RDSR) cell line was generated by stabily integrating the SMAD cellular reporter plasmid (Promega, pGL4.48[luc2P/SBE/Hygro]) into the human rhabdomyosarcoma cell line RD (ATCC, CCL-136). Once SMAD signaling is triggered, with, for example, the addition of TGF-β 1, receptor activated SMADs bind the SMAD binding elements (SBEs) leading to the expression of intracellular luciferase. To determine the potency of compounds at inhibiting TGF-beta induced SMAD signaling, the RDSR reporter system was utilized. The rhabdomyosarcoma line RD (ATCC, CCL-136) was transfected with a SMAD reporter vector (Promega, E3671) and a polyclonal stable cell line was selected using hygromycin B. The transfected vector contains three copies of a SMAD-binding element (SBE) that drive transcription of the luciferase reporter gene luc2P (Photinus pyralis). luc2P is a synthetically-derived luciferase sequence with humanized codon optimization that is designed for high expression and reduced anomalous transcription. The luc2P gene contains hPEST, a protein destabilization sequence, which allows luc2P protein levels to respond more quickly than those of luc2 to induction of transcription. The intracellular luciferase is quantified by the addition of equal volume (100 μl) of ONE-GLO substrate (Promega, E6120) and read within ten minutes on the Envision plate reader. The stable RDSR cell line was tested by evaluating the response to human TGF-β1 (R&D Systems, 7754-BH-005) as well as human myostatin (R&D Systems, 788-G8-010/CF) in a concentration dependent manner after twenty-four hours of stimulation. […] For compound evaluation, the tool drugs Galunisertib and Vactosertib were included as positive controls. The tool drugs and the compounds of the invention being tested were all incubated with cells for one hour at 37° C. before stimulation with 200 pg/ml rhTGF-beta1 for twenty-four hours. The activity of the reporter was determined with the addition of ONE-GLO (Promega) substrate and luminescence counts collected on the Envision plate reader (Perkin Elmer). […] The activity of compounds of the invention as determined using this method are reported in the third column of Table 1, below.

In a further assay the target is ALK-5 (Homo sapiens (Human), UniProt P36897). The experiment in a line: LanthaScreen Eu Kinase Binding Assay, ALK-5. As to conditions: for pIC50: read-out: Kinase Inhibition: ALK5 IC50. As for the experimental part:
Activity determinations and selectivity were conducted by Thermo Fisher Scientific “SelectScreen™ Biochemical Kinase Profiling Service” using their “LanthaScreen™ Eu Kinase Binding Assay Screening” (www.thermofisher.com/selectscreen). Binding of an Alexa Fluor™ conjugate or “tracer” to a kinase is detected by addition of a Eu-labeled anti-tag antibody. Binding of the tracer and antibody to a kinase results in a high degree of FRET, whereas displacement of the tracer with a kinase inhibitor results in a loss of FRET. This assay is carried out by mixing the compound tested with the reagents and reading, no development step is required. Life Technologies' Kinase Tracers are based on ATP-competitive kinase inhibitors, making them suitable for detection of any compounds that bind to the ATP site. Inhibitors that bind the ATP site include both Type I kinase inhibitors, which bind solely to the ATP site, and Type II inhibitors (e.g., Gleevec®/Imatinib, Sorafenib, BIRB-796), which bind to both the ATP site and a second site often referred to as the allosteric site. […] For 10 point titrations, 3-fold serial dilutions are conducted from the starting concentration (see Table 2 below). [table] All Kinase/Antibody Mixtures are diluted to a 2× working concentration in the specified kinase buffer. The 4× AlexaFluor labeled Tracer is prepared in Kinase Buffer. Bar-coded, low volume, white 384-well plate (Greiner Cat. #784207) […] 2. 3.84 μL—Kinase Buffer […] 4. 4.0 μL—4× Tracer 5. 30-second plate shake 6. 60-minute incubation at room temperature 7. […] The LanthaScreen Eu Kinase Binding Assay data is analyzed using the equations in Table 3 for each set of data points. [table] Data generated were plotted using the graphing software XLfit from IDBS. The dose response curve is curve fit to model number 205.
A general note: TR-FRET usually uses a lanthanide donor and a delayed reading to cut background.

Chain of ALK-5 (P36897 34-503): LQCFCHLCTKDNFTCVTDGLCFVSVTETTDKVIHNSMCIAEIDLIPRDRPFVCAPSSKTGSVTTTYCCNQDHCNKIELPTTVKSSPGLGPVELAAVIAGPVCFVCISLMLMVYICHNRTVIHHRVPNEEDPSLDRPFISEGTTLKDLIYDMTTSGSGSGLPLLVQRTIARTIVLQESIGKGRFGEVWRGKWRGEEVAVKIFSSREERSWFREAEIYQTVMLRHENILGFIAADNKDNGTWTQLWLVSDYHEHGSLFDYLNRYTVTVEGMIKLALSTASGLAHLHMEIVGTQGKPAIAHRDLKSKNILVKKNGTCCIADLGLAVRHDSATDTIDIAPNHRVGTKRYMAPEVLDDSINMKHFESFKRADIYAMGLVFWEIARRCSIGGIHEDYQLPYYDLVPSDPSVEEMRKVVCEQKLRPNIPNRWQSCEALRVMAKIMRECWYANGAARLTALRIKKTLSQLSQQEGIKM

For the molecule `Cc1cccc2c(Nc3ccnc(Nc4ccc(C5CCOCC5)cc4)n3)cnnc12` [EX-46, N4-(8-methylcinnolin-4-yl)-N2-(4-(tetrahydro-2H-pyran-4-yl)phenyl)pyrimidine-2,4-diamine], the pIC50 in assay [1] is > 7.00. Further, on ALK-5, the “Kinase Selectivity: ALK2 IC50/ ALK5 IC50” value is “(++) (10<ALK2/ALK5<100=[++])” and the pIC50 was > 8.00.

On to `Cc1cccc2c(Nc3ccnc(Nc4cccc(CN5CCOCC5)c4)n3)cnnc12` [EX-47, N4-(8-methylcinnolin-4-yl)-N2-(3-(morpholinomethyl)phenyl)pyrimidine-2,4-diamine], for which, in assay [1], the pIC50 is > 7.00. Besides, on ALK-5, the “Kinase Selectivity: ALK2 IC50/ ALK5 IC50” value was “(++) (10<ALK2/ALK5<100=[++])” and the pIC50 was > 8.00.

With `Cc1cccc2c(Nc3ccnc(Nc4ccc(N5CCNCC5)cc4)n3)cnnc12` [EX-48, N4-(8-methylcinnolin-4-yl)-N2-(4-(piperazin-1-yl)phenyl)pyrimidine-2,4-diamine], the pIC50 in assay [1] was > 7.00; on ALK-5, > 8.00. At ALK-5, the “Kinase Selectivity: ALK2 IC50/ ALK5 IC50” value is “(++) (10<ALK2/ALK5<100=[++])”.

For `CN1CCN(c2ccc(Nc3nccc(Nc4cnnc5c(Cl)cccc45)n3)cc2)CC1` [EX-49, N4-(8-chlorocinnolin-4-yl)-N2-(4-(4-methylpiperazin-1-yl)phenyl)pyrimidine-2,4-diamine], the pIC50 in assay [1] was > 7.00; on ALK-5, > 8.00. Also, the “Kinase Selectivity: ALK2 IC50/ ALK5 IC50” value at ALK-5 is “(++) (10<ALK2/ALK5<100=[++])”.

Turning to `Clc1cccc2c(Nc3ccnc(Nc4ccc(N5CCNCC5)cc4)n3)cnnc12` [EX-50, N4-(8-chlorocinnolin-4-yl)-N2-(4-(piperazin-1-yl)phenyl)pyrimidine-2,4-diamine], the pIC50 in assay [1] is 6.00 to 7.00. Besides, at ALK-5, the “Kinase Selectivity: ALK2 IC50/ ALK5 IC50” value is “(++) (10<ALK2/ALK5<100=[++])” and the pIC50 was > 8.00.

For the molecule `Cc1nnc2c(C)cccc2c1Nc1ccnc(Nc2cccc(N3CCOCC3)c2)n1` [EX-51, N4-(3,8-dimethylcinnolin-4-yl)-N2-(3-morpholinophenyl)pyrimidine-2,4-diamine], the pIC50 in assay [1] is 6.00 to 7.00; on ALK-5, > 8.00. Besides, on ALK-5, the “Kinase Selectivity: ALK2 IC50/ ALK5 IC50” value was “(+) (≤10=[+])”.

For the molecule `Cc1nnc2c(C)cccc2c1Nc1ccnc(Nc2ccc(N3CCOCC3)cc2)n1` [EX-52, N4-(3,8-dimethylcinnolin-4-yl)-N2-(4-morpholinophenyl)pyrimidine-2,4-diamine], the pIC50 in assay [1] is 6.00 to 7.00. At ALK-5, the “Kinase Selectivity: ALK2 IC50/ ALK5 IC50” value was “(+) (≤10=[+])” and the pIC50 is > 8.00.

Consider `Cc1cccc2c(Nc3ccnc(Nc4ccc(N5CCN(C)CC5)c(F)c4)n3)cnnc12` [EX-53, N2-(3-fluoro-4-(4-methylpiperazin-1-yl)phenyl)-N4-(8-methylcinnolin-4-yl)pyrimidine-2,4-diamine], for which the pIC50 in assay [1] is > 7.00; on ALK-5 it was > 8.00. Besides, the “Kinase Selectivity: ALK2 IC50/ ALK5 IC50” value at ALK-5 was “(++) (10<ALK2/ALK5<100=[++])”.

On to `Cc1cccc2c(Nc3ccnc(Nc4ccc(C(C)(C)C)cc4)n3)cnnc12` [EX-54, N2-(4-(tert-butyl)phenyl)-N4-(8-methylcinnolin-4-yl)pyrimidine-2,4-diamine], for which the pIC50 in assay [1] was 6.00 to 7.00. On ALK-5, the “Kinase Selectivity: ALK2 IC50/ ALK5 IC50” value was “(++) (10<ALK2/ALK5<100=[++])” and the pIC50 is 7.00 to 8.00.

For `Cc1cccc2c(Nc3ccnc(Nc4ccc(N5CCCCC5)cc4)n3)cnnc12` [EX-55, N4-(8-methylcinnolin-4-yl)-N2-(4-(piperidin-1-yl)phenyl)pyrimidine-2,4-diamine], in assay [1], the pIC50 was > 7.00. On ALK-5, the “Kinase Selectivity: ALK2 IC50/ ALK5 IC50” value was “(++) (10<ALK2/ALK5<100=[++])” and the pIC50 was > 8.00.

Take `Cc1cccc2c(Nc3ccnc(Nc4ccc(C5CCCCC5)cc4)n3)cnnc12` [EX-56, N2-(4-cyclohexylphenyl)-N4-(8-methylcinnolin-4-yl)pyrimidine-2,4-diamine]: the pIC50 in assay [1] is 6.00 to 7.00. At ALK-5, the “Kinase Selectivity: ALK2 IC50/ ALK5 IC50” value was “(+++) (100≤ALK2/ALK5=[+++])” and the pIC50 was > 8.00.
